# Source: US20200215003A1, “PARENTERAL ADMINISTRATION OF TAPENTADOL” (GRÜNENTHAL GMBH, priority 2011, published 2020)
# Counter-ions that a name gives are not always drawn.
# Assays:
# [1] = system: CFA induced chronic inflammatory pain in rats; experiment: Complete Freund Adjuvant (CFA) induced chronic inflammatory pain (paw pressure test); format: in vivo; conditions: for ED50: Rattus norvegicus, ip, 0.25 h, chronic pain, 15 min p. appl.; for time at which the peak effect was reached: p. appl., timepoint of first measurement
# From the text: (§1) The weight ratios of the components (a) and (b) that will lead to a supra-additive effect (synergistic effect) of the inventive pharmaceutical composition may be determined via the paw pressure test of Randall and Selitto as described in Arch. Int. Pharmacodyn., 1957, 111: 409 to 419, which is a model for inflammatory pain. The respective part of the literature is hereby incorporated by reference and forms part of the present disclosure. Accordingly, the weight ratios of the components (a) and (b) that will lead to a supra-additive effect (synergistic effect) of the inventive pharmaceutical composition were determined in a model of acute pain (A) and a model of chronic pain (B).
# Chronic inflammation was induced by an intraplantar injection of 0.05 mL of a CFA solution (Mycobacterium tuberculosis, H37 Ra, Difco Laboratories, Detroit, Mich., U.S.A.; 1 mg/mL in mineral oil) into one hind paw. The mechanical nociceptive threshold is measured before (prevalue) and one day after CFA injection using an Algesiometer (Ugo Basile, Italy). The device generates a mechanical force with a linear increase over time. The force is applied to the dorsal surface of the inflamed rat hind paw via a cone-shaped stylus with a rounded tip (2 mm tip diameter). The nociceptive threshold is defined as the force (in grams) at which the rat vocalises (cut-off force 450 g). The mechanical nociceptive threshold is measured at different timepoints after the drug or vehicle administration. The antinociceptive and antihyperalgesic activity of the tested substance is expressed as percentages of the maximal possible effect (%MPE). The maximal possible effect is defined as the percentage of prevalue withdrawal treshold before CFA-injection. The group size is n=10.
# (§2) The analysis of the results with respect to a supra-additive effect of the inventive pharmaceutical composition comprising the components (a) and (b) was carried out via statistical comparison of the theoretical additive ED50-value with the experimentally determined ED50-value of a so-called fixed ratio combination (isobolographic analysis according to Tallarida J T, Porreca F, and Cowan A. Statistical analysis of drug-drug and site-site interactions with isobolograms. Life Sci. 1989; 45: 947-961). The interactions studies presented herein were performed using equieffective doses of the two components, calculated from the ratio of the respective ED50 values of the components if administered alone.
# [2] = system: carrageenan induced acute inflammatory pain in rats; experiment: carrageenan induced acute inflammatory pain (paw pressure test); format: in vivo; conditions: for ED50: Rattus norvegicus, 0.25 h, acute pain, 15 min p. appl.; for time at which the peak effect was reached: p. appl., timepoint of first measurement
# From the text: as §1
# Acute inflammation was induced by injection of a 0.1 ml carrageenan solution (0.5% in distilled water) subcutaneously into the plantar surface of the right hind paw of the rat. The mechanical nociceptive threshold was measured using an Algesiometer (Ugo Basile, Italy). The device generates a mechanical force with a linear increase over time. The force was applied to the dorsal surface of the inflamed hind paw via a cone-shaped stylus with a rounded tip (3 mm^2). The nociceptive threshold (Tv) was defined as the force at which the rat vocalises (cut-off force 450 g). Compounds or vehicle were given 3 h after carrageenan injection. The mechanical nociceptive threshold was measured at different times after the drug or vehicle administration. The drug effects are expressed as percentages of the maximal possible effect (MPE) based on the following formula: %MPE=(Tv drug−Tv control)/(cut-off−Tv control)×100. The group size is n=12.
# as §2
# [3] = clinical studies, compared with morphine; cited from earlier work
# [4] = biological target: recombinantly produced μ-opioid receptor (Homo sapiens, UniProt P35372); conditions: compared with morphine; cited from earlier work
# [5] = system: diabetic hyperalgesia in male C57/BL/6 mice; experiment: streptozotocin-induced diabetic heat hyperalgesia, hot plate 50 °C; format: in vivo
# Sequence of recombinantly produced μ-opioid receptor (P35372 whole entry): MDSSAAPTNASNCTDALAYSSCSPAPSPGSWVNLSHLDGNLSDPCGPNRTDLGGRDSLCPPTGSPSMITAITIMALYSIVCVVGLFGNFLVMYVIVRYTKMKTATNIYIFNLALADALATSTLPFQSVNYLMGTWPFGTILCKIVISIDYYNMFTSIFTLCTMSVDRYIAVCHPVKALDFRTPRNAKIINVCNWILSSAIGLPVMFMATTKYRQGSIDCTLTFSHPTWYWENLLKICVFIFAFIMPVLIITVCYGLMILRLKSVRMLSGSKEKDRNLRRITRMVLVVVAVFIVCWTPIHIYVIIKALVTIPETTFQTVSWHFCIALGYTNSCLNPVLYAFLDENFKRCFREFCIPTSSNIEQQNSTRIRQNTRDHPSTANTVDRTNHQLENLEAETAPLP
Compound,ED50 [1] [mg/kg],time at which the peak effect was reached [1] [min],ED50 ([2]; ip) [mg/kg],time at which the peak effect was reached [2] [min],pain-alleviating action relative to morphine [3],ED50 ([2]; iv) [mg/kg],affinity to the recombinantly produced μ-opioid receptor relative to morphine [4] [times less],"combined intrathecal and intracerebroventricular ED 50 compared to theoretical additive effects ([5]; FIG. 7, p <0.001)","ED-50 ([5]; combination of intrathecal and intracerebroventricular administration, threshold values after 15 minutes)","ED-50 ([5]; intracerebroventricular administration, thermal hyperalgesia threshold values after 15 minutes)","inhibition of diabetic heat hyperalgesia ([5]; intracerebroventricular, 0.1, 0.3 and 1.00 μg (FIGS. 3 and 4))","ED-50 ([5]; intrathecal administration, thermal hyperalgesia threshold values after 15 minutes)","inhibition of diabetic heat hyperalgesia ([5]; intrathecal plus intracerebroventricular, simultaneously (FIGS. 5 and 6))","inhibition of diabetic heat hyperalgesia ([5]; intrathecal, 0.316, 1.00 and 3.16 μg (FIGS. 1 and 2))"
"CCN(CC)CC(=O)Nc1c(C)cccc1C [Lidocaine, lidocaine hydrochloride]",26.8,15,32.4,15,–,–,–,–,–,–,–,–,–,–
"CC[C@@H](c1cccc(O)c1)[C@@H](C)CN(C)C [tapentadol, (1 R,2R)-3-(3-dimethylamino-1-ethyl-2-methyl-propyl)-phenol]",6.34,15,–,15,two to three times less,1.75,18,synergistically better,0.053 (0.032-0.074) mg/animal,0.18 (0.14-0.22) mg/animal,dose-dependent inhibition,0.42 (0.26-0.58) mg/animal,dose-dependent inhibition,dose-dependent inhibition
